Where two headings read alike, the source gives them in different places.
Columns and labels:
Parkinson's disease = conditions: systemic application; cited from earlier work
Parkinsonian patients = conditions: three patients; continuous i.v. infusion replacing oral levodopa; cited from earlier work
[1] = both in vitro and in vivo; cited from earlier work
[2] = Intracerebral dialysis: extracellular fluid dopamine levels in the striatum after implantation of dopamine containing EVA pellets
Procedure: Male Sprague-Dawley Ras (150-200 g) were anaesthetized with pentobarbitone (60 mg/kg) and placed in a David Kopf stereotaxic frame. The skull was exposed and a 4 mm diameter hole drilled centered at coordinates A +0.4 mm and R 2.6 mm using the Paxinos and Watson coordinates. The right cortex was aspirated using a mild vacuum down to the striatal surface (ventral - 3 mm). Pellets were implanted with the uncoated pore, when present, facing ventrally and imbedded in the body of the striatum. Both control, non-dopamine containing pellets, and dopamine containing (2 mg) pellets were implanted. In vivo release was measured on the third, twentieth and sixty-fifth days. Intracerebral Dialysis Method:
Rats were anaesthetized with pentobarbitone (60 mg/kg) and placed in the Kopf stereotaxic frame. The skull was exposed and a Carnegie Medicin dialysis probe (4 mm membrane length, 0.5 mm o.d., 5,000 m.w. cut off) implanted into the striatum at Paxinos and Watson coordinates A +2.1, R (or L) 1.9, V -7 mm. Probes were perfused with an artificial CSF medium, 1 mM Ca, pH 7.35, at a flow rate of 1.5 microliter/min using a CMA 100 pump. Fifteen minute samples were collected into 5 microliters of 0.5M perchloric acid. The probe was calibrated by measuring the recovery of standards of known concentration, 100 nM. Dialysates were immediately assayed by direct injection onto a highly sensitive reverse-phase, isocratic HPLC with an ESA 5100 coulochem detector. Chromatograms were completed within 11 minutes. After an initial period of "injury release", 60 to 90 minutes post probe implantation, stable concentrations of dopamine were measured for a minimum of three […] collections.
The first rat had probes inserted into the right striatum on the third and sixty-fifth days and in the left striatum on the sixty-fifth day post polymer implantation. The second rat had probes inserted into both the right and left striata on the twentieth day.

[3] = Source text: Ethylene vinyl acetate slabs containing 0%, 30%, 40% and 50% dopamine by weight formed by solvent casting as previously described were punched out to form round discs, approximately 3.0 mm in diameter. These discs were then coated by an additional layer of ethylene vinyl acetate either (i) completely; (ii) completely except for one concave pinhole present on one surface (iii) completely except for two concave pinholes present, one on each surface; (iv) partially, with one surface coated and the other not coated; or (v) not coated at all.
The release of dopamine into 5 ml of a 150 mM NaCI, 0.2% EDTA solution was monitored by measuring the absorbance at 280 nm of the solution at various time points and by comparison to a linear standard curve comparing absorbance at 280 nm to concentration of dopamine in the same buffered solution. The results are portrayed as either the absolute mass released over the time course of 65 days or as the amount of dopamine released as a fraction of the total amount present in the pellet.
Samples of these solutions were injected into High Pressure Liquid Chromatography system designed to measure absolute quantities of dopamine and to distinguish dopamine from its oxidation products or other metabolites.

behavioral deficits = conditions: intracerebral injections; cited from earlier work

## N[C@@H](Cc1ccc(O)c(O)c1)C(=O)O [L-dopa]
Parkinson's disease
  behavioral symptoms of Parkinson's disease: can be reduced
Parkinsonian patients
  clinical response: prolonged and stable clinical response

## NCCc1ccc(O)c(O)c1 [dopamine]
[1]
  release from EVA over an extended period of time: linear, concentration and time-dependent release
[2]; not evident on third day, seen by twentieth day
  persistence of dopamine release into the extracellular fluid of the implanted striatum: persists for at least two months
[2]; rat, in vivo
  increase in dopamine levels: > 200 fold
[2]; rat, in vivo, 28800 min
  dopamine concentration in the extracellular fluid (ECF): 30.5 nM
[2]; rat, in vivo, 93600 min
  dopamine level in the extracellular fluid (ECF): 36 nM
[2]; third day
  level of dopamine in the right striatum relative to normal: unchanged from normal
[3]; High Pressure Liquid Chromatography of release solutions
  substance released that was dopamine (not oxidation products or other metabolites), HPLC: greater than 99.9%
[3]; coated fully except for one hole, 30% loading, up to 65 days in vitro
  release of dopamine: linear release
[3]; coated fully except for one hole, 40% dopamine
  initial release of dopamine (every thirty minutes over several hours): release is constant
[3]; disc coated on one side, 30%, 40% or 50% dopamine
  release of dopamine: the release is not linear
[3]; disc containing 30%, 40% or 50% dopamine, fully coated, throughout the time period
  release of dopamine: no release of dopamine
[3]; disc not coated, 30%, 40% or 50% dopamine
  release of dopamine: release occurred rapidly, in a non-linear manner
[3]; fully coated except for two holes, 30% loading
  release of dopamine: Virtual linear release

## Nerve Growth Factor
Behavioral deficits
  behavioral deficits: reduces behavioral deficits
